Measured values taken from article PMC6254971, “Antimalarial Activity of Ultra-Short Peptides” (Molecules, 2009).
Like-named read-outs stand apart in the source and are kept apart here. Non-standard residues stand in square brackets, D forms with d. Residues, ends and D or L forms follow the SMILES beside them. No end group written: not given here. *: point of attachment. Orn = NCCC[C@H](N)C(=O)O; Cbz = O=C(OCc1ccccc1)*; CH2F = FC*

Key:
P. falciparum = test system: P. falciparum; parameters: method as in 6 sources, ref 23 = [23]; PMID 16723585; doi:10.1128/AAC.00022-06; 23. Parikh S. Liu J. Sijwali P. Gut J. Goldberg D.E. Rosenthal P.J. Antimalarial effects of human immunodeficiency virus type 1 protease inhibitors differ from those of the aspartic protease inhibitor ||| ref 24 = [24]; PMID 11172676; doi:10.2174/0929867013373787; 24. Meinke P.T. Liberator P. Histone deacetylase: A target for antiproliferative and antiprotozoal agents Current Med. Chem. 2001 8 211 235 10.2174/0929867013373787 11172676 ||| ref 12 = [12]; PMID 16643062; doi:10.1021/np050549h; 12. Thongtan J. Saenboonrueng J. Rachtawee P. Isaka M. An antimalarial tetrapeptide from the entomopathogenic fungus Hirsutella sp. BCC 1528 J. Nat. Prod. 2006 69 713 714 10.1021/np050549h 16643062 ||| ref 25 = [25]; PMID 18305429; doi:10.3390/molecules13020432; 25. Sathe M. Thavaselvam D. Srivastava A.K. Kaushik M.P. Synthesis and antimalarial evaluation of cyclic β-amino acid-containing dipeptides Molecules 2008 13 432 443 10.3390/molecules13020432 18305429 ||| ref 30, 31 = [30]; PMID 1939639; doi:10.1172/JCI115456; 30. Rosenthal P.J. Wollish W.S. Palmer J.T. Rasnick D. Antimalarial effects of peptide inhibitors of a Plasmodium falciparum cysteine proteinase J. Clin. Invest. 1991 88 1467 1472 10.1172/JCI115456 19 || [31]; PMID 8807047; doi:10.1128/aac.40.7.1600; 31. Rosenthal P.J. Olson J.E. Lee G.K. Palmer J.T. Klaus J.L. Rasnick D. Antimalarial effects of vinyl sulfone cysteine proteinase inhibitors Antimicrob. Agents Chemother. 1996 40 1600 1603 8807047 10 ||| ...; conditions: cited from earlier work; for IC50: read-out: IC50 against P. falciparum; for IC50 in vitro: maturation schizonts and total growth inhibition assays
[1] = test system: Plasmodium berghei schizonts (ANKA 2.34), chloroquine-sensitive; test: microbe, parasite or virus in culture; conditions: for Chemosuppression of P. berghei schizont cultures (%): compound 200 μM, schizonts counted in 2,000 erythrocytes
Protocol: Mature P. berghei schizonts were prepared as described by Thathy and Menard. […] Parasites were incubated for 16 h at 37 °C as described. Chloroquine (C6628 Sigma Chloroquine diphosphate salt solid, ≥98% purity) was used as positive control. Samples of 0.5 mL of each culture were taken to prepare smears and used to count numbers of schizonts in 2,000 erythrocytes. The IC50 values of each compound were determined using concentrations of 5, 50, 100, and 200 µM, according to Khalid et al., and by extrapolation from the concentration response curve. The IC50 value represents the drug concentration producing a 50% reduction in the number of P. berghei schizonts (compared to drug-free control cultures).

malarial infected mice = conditions: four days of subcutaneous administration; cited from earlier work
P. berghei = test system: P. berghei; parameters: method as in 2 sources, ref 29 = [29]; PMID 8917558; doi:10.1073/pnas.93.23.13143; 29. Darkin-Rattray S.J. Gurnett A.M. Myers R.W. Dulski P.M. Crumley T.M. Allocco J.J. Cannova C. Meinke P.T. Colletti S.L. Bednarek M.A. Singh S.B. Goetz M.A. Dombrowski A.W. Polishook J.D. Schmatz D. ||| ref 25 = [25]; PMID 18305429; doi:10.3390/molecules13020432; 25. Sathe M. Thavaselvam D. Srivastava A.K. Kaushik M.P. Synthesis and antimalarial evaluation of cyclic β-amino acid-containing dipeptides Molecules 2008 13 432 443 10.3390/molecules13020432 18305429; conditions: cited from earlier work
[2] = test system: trophozoite cysteine proteinase (TCP); parameters: method as in PMID 1939639, PMID 8807047; conditions: cited from earlier work
[3] = read-out: IC50 (50% reduction in the number of P. berghei schizonts), 16 h at 37 °C, concentrations 5, 50, 100, 200 µM, extrapolation from concentration response curve, duplicate, averaged
[4] = 16 h at 37 °C, duplicate, averaged

COC(=O)N[C@H](C(=O)N[C@@H](Cc1ccccc1)[C@@H](O)CN(Cc1ccc(-c2ccccn2)cc1)NC(=O)[C@@H](NC(=O)OC)C(C)(C)C)C(C)(C)C [atazanavir]
inhibition of P. falciparum in vitro (P. falciparum): inhibit P. falciparum in vitro

HC-toxin I
MIC against P. falciparum (P. falciparum): 0.031 µg/mL

CC(C)(C)NC(=O)[C@@H]1C[C@@H]2CCCC[C@@H]2CN1C[C@@H](O)[C@H](Cc1ccccc1)NC(=O)[C@H](CC(N)=O)NC(=O)c1ccc2ccccc2n1 [saquinavir]
inhibition of P. falciparum in vitro (P. falciparum): inhibit P. falciparum in vitro

pepstatin A
IC50 (P. falciparum): 7.5 µM

CC(C)[C@H](NC(=O)[C@@H](N)CCCCN)C(=O)N[C@@H](Cc1ccccc1)C(=O)N1CCC[C@H]1C(=O)O [Compound 8, Lys-Val-Phe-Pro] (H-KVFP-OH)
IC50 [1, 3]: 51.3 µM

CC(C)[C@H](NC(=O)[C@@H](N)CCCCN)C(=O)N1CCC[C@H]1C(=O)N[C@@H](CCCN)C(=O)O [Compound 7, Lys-Val-Pro-Orn] (H-KVP[Orn]-OH; N-terminus assumed)
IC50 ([1]; 16 h): > 200 µM
Chemosuppression of P. berghei schizont cultures (%) [1, 4]: 27.39%

morpholine urea (Mu)-Phe-HPh-CH2F
cured malarial infected mice (malarial infected mice): 80%

CC(C)[C@H](NC(=O)[C@H](CCCN)NC(=O)[C@@H](N)Cc1ccccc1)C(=O)O [Compound 9, Phe-Orn-Val] (H-Phe-[Orn]-Val-OH)
IC50 ([1]; 16 h): 120 µM

apicidin A
MIC against P. falciparum (P. falciparum): 0.125 µg/mL

hirsutellic A acid
IC50 (P. falciparum): 8 µM

CC(C)[C@H](NC(=O)[C@H](CCCCN)NC(=O)[C@H](Cc1ccccc1)NC(=O)[C@@H](N)CCCN)C(=O)O [Compound 6, Orn-Phe-Lys-Val] (H-[Orn]FKV-OH; N-terminus assumed)
IC50 ([1]; 16 h): > 200 µM
Chemosuppression of P. berghei schizont cultures (%) [1, 4]: 26.58%
antimalarial activity in words (P. berghei schizont cultures) ([1]; in vitro, 16 h): inactive

CC(C)[C@H](N)C(=O)N[C@@H](CCCCN)C(=O)N[C@@H](Cc1ccccc1)C(=O)N[C@@H](CCCN)C(=O)O [Compound 2, Val-Lys-Phe-Orn] (H-VKF[Orn]-OH)
IC50 ([1]; 16 h): 10 µM

NCCCC[C@H](N)C(=O)N[C@@H](Cc1ccccc1)C(=O)N[C@@H](Cc1ccccc1)C(=O)N[C@@H](CCCN)C(=O)O [Compound 5, Lys-Phe-Phe-Orn] (H-KFF[Orn]-OH)
IC50 ([1]; 16 h): 2.57 µM

2-(2-tert-butoxycarbonylamino-3-phenyl-propionylamino)-cyclooctanecarboxylic acid methyl ester
in vivo antimalarial activity against P. berghei (P. berghei): active in vivo
IC50 in vitro (P. falciparum): 3.64 µg/mL

NCCCC[C@H](N)C(=O)N[C@@H](CCCN)C(=O)N[C@@H](Cc1ccccc1)C(=O)N[C@@H](CCCN)C(=O)O [Compound 3, Lys-Orn-Phe-Orn] (H-K[Orn]F[Orn]-OH)
IC50 ([1]; 16 h): 13.5 µM

apicidin
in vivo antimalarial activity against P. berghei (P. berghei): potent in vivo antimalarial agent
MIC against P. falciparum (P. falciparum): 0.125 µg/mL

2-(2-tert-butoxycarbonylamino-4-methylpentanoyl-amino)-cyclooctanecarboxylic acid methyl ester
IC50 in vitro (P. falciparum): 3.87 µg/mL

CCN(CC)CCCC(C)Nc1ccnc2cc(Cl)ccc12 (stereo not shown) [Chloroquine]
IC50 ([1]; Plasmodium berghei, 16 h, read-out: IC50 (50% reduction in the number of P. berghei schizonts)): 0.06 µM
Chemosuppression of P. berghei schizont cultures (%) [1, 4]: 100%

F[Orn]F[Orn] [Compound 4]
Chemosuppression of P. berghei schizont cultures (%) [1, 4]: 85.94%
IC50 [1, 3]: 3.31 µM

CC[C@H](C)[C@H](N)C(=O)N[C@@H](CCCCN)C(=O)N[C@@H](Cc1ccccc1)C(=O)N[C@@H](CCCN)C(=O)O [Compound 1, Ile-Lys-Phe-Orn] (H-IKF[Orn]-OH)
IC50 ([1]; 16 h): 32.4 µM

Cbz-Phe-Arg-CH2F [peptidylfluoromethyl ketone]
inhibition of trophozoite cysteine proteinase [2]: very potent inhibitor
